Source: patent US8299209B2, “Pharmaceutical composition comprising cyclic somatostatin analogues” (Novartis AG, priority 2003, dated 2012)
Numbered stars: 1 amine (or outer) side, 2 acyl side, 3 side chain; on linkers, the order of the positions; unused ones are H or OH. Square brackets hold non-standard residues; d marks the D form. Side chains are listed from the residue outwards. Peptide text beside a SMILES is read from it. * marks the point of attachment. ξ: configuration not given here. Ethylenediamine = C(CN[*:2])N[*:1]; dPhg = N[C@@H](C(=O)O)c1ccccc1; ξHyp = O=C(O)C1CC(O)CN1; CO = O=C([*:1])[*:2]; Bn = c1ccc(C*)cc1

Columns and labels:
hsst3 = target: T1, hsst3 (Homo sapiens, UniProt P32745); test: competition binding assay on membranes of cells expressing hsst3
T1 construct: expressed in transfected cells
T1 sequence (P32745 whole entry): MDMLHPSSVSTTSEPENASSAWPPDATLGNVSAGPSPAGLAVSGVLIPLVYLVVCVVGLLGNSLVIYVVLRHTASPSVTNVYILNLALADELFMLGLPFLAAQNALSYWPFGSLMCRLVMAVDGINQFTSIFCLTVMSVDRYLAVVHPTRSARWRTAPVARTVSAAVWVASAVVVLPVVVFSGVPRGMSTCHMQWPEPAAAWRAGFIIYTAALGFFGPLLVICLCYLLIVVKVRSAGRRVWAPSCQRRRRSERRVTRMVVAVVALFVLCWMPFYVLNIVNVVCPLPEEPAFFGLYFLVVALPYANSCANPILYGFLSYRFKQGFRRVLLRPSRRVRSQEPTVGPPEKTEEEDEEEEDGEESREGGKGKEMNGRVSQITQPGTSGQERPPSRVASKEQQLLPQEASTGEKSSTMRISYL
Description: (§1) The experiments are carried out in triplicate.

cultured pituitary cells = test: inhibition of GH release in vitro from cultured pituitary cells; format: cell-based; details: rat anterior pituitary cells, three hours, 3×10^−10 M growth hormone releasing factor
Description: For example, anterior pituitary glands from adult male rats are cut into small pieces and dispersed using 0.1% trypsin in 20 mM HEPES buffer. The dispersed cells are cultured for four days in MEM (Gibco) supplemented with 5% fetal calf serum, 5% horse serum, 1 mM NaHCO3, 2.5 nM dexamethasone, 2.5 mg/ml insulin and 20 U/ml Pen/Strep. On the day of the experiment the attached cells are washed two times with Krebs-Ringer medium buffered with 20 mM HEPES and supplemented with 5 mM glucose and 0.2% BSA. […] The amount of growth hormone released into the medium is measured by RIA.

hsst5 = target: T2, hsst5 (Homo sapiens, UniProt P35346); test: competition binding assay on membranes of cells expressing hsst5; details: IC50 value in the nMolar range
T2 construct: expressed in transfected cells
T2 sequence (P35346 whole entry): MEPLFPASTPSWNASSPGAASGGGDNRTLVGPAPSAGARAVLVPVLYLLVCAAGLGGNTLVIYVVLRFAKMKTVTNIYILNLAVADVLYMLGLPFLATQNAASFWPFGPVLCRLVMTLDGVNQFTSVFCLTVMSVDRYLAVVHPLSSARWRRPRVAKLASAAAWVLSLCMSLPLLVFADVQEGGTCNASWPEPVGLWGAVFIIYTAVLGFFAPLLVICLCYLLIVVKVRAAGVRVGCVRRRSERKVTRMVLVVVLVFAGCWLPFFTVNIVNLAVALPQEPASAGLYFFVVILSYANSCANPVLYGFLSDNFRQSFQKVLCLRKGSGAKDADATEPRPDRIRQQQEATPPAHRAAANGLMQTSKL
Description: as §1

hsst1 = hsst1 (Homo sapiens, UniProt P30872)
Chain of hsst1 (P30872 whole entry): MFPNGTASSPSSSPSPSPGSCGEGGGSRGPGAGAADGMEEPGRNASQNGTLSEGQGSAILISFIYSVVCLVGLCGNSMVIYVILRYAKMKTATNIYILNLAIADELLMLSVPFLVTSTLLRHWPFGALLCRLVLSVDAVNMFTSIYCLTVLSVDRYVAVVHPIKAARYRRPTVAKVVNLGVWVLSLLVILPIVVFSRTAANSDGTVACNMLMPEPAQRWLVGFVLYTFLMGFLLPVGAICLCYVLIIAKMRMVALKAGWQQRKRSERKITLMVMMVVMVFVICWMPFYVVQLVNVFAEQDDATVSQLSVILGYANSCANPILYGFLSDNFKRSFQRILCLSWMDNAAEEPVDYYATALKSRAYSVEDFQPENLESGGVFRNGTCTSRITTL
Description: The binding assays may be carried out as disclosed hereunder using membranes from cell lines expressing selectively and stably hsst1, hsst2, hsst3, hsst4 or hsst5, e.g. CHO or COS cells.
Membranes prepared from hsst selective cell lines, e.g. CHO or COS cells stably expressing hsst1 or hsst2 or hsst3 or hsst4 or hsst5 are incubated in triplicate in a total volume of 300 μl at 22° C. for 30 min with increasing concentrations of [^125I-Tyr^11]-SRIF-14 in 10 mmol/l Hepes buffer (pH 7.6) containing 0.5% BSA. The incubation is terminated by rapid filtration and the filters are counted in a counter. Specific binding is total binding minus non-specific binding in the presence of 1 μmol/l somatostatin-14. The experiments are carried out in triplicate. The affinity constant (KD) and number of binding sites are calculated using appropriate statistics and graphical programs.

hsst2 = target: T3, hsst2 (Homo sapiens, UniProt P30874); test: competition binding assay on membranes of cells expressing hsst2
T3 construct: expressed in transfected cells
T3 sequence (P30874 whole entry): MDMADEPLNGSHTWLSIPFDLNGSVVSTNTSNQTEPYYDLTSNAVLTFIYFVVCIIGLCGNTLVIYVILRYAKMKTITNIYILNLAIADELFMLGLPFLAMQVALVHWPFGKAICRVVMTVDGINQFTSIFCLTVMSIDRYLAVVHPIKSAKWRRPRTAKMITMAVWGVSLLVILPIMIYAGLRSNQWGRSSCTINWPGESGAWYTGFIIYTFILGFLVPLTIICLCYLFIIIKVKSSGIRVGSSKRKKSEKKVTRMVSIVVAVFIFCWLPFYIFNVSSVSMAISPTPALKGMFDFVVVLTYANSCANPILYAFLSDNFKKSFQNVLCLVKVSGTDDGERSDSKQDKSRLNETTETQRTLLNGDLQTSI
Description: as §1

growth hormone release = test: inhibition of growth hormone (GH) release in rats; format: in vivo, rat; details: s.c. to anaesthetized rats
Description: Compound B is administered s.c. to anaesthetized rats. Blood is collected after decapitation 1 h after administration of the compound. The duration of action is estimated on the basis of the inhibition of basal GH secretion 6 h after drug treatment. Hormone levels are measured by RIA 1 h and 6 h after treatment. The ID50-value for the inhibition of the hormone secretion is determined graphically (log-probit) for each experiment and the resulting values are averaged logarithmically.

[1] = storage stability of the composition; format: physicochemical; details: in the composition of the invention
Description: For example, less than 2.5% of degradation products were found after 4 weeks storage at 60° C. For example, if stored with light protection at 2° C. to 8° C., the compositions of the invention are stable over 24 months.

stability (in words) [1]	Molecule	binding affinity towards hsst3 (in words) (hsst3)	inhibition of GH release in vitro (cultured pituitary cells)	binding affinity towards hsst5 (in words) (hsst5)	binding affinity towards hsst1 (in words) (hsst1)	binding affinity towards hsst2 (in words) (hsst2)	inhibition of growth hormone release in vivo (growth hormone release)
	NCCCC[C@@H]1NC(=O)[C@@H](Cc2c[nH]c3ccccc23)NC(=O)[C@@H](c2ccccc2)NC(=O)C2CC(OC(=O)NCCN)CN2C(=O)[C@H](Cc2ccccc2)NC(=O)[C@H](Cc2ccc(OCc3ccccc3)cc2)NC1=O (stereo partly drawn) [Compound B, cyclo[{4-(NH2—C2H4—NH—CO—O—)Pro}-DPhg-DTrp-Lys-Tyr(4-Bzl)-Phe]] (cyclo([ξHyp]([CO-Ethylenediamine])[dPhg][dW]KY(Bn)F))	low binding affinity	GH-release inhibiting activity	good binding affinity	no significant binding affinity	no significant binding affinity	inhibits growth hormone release
Particularly good stability	cyclo[{4-(NH2—C2H4—NH—CO—O—)Pro}-Phg-DTrp-Lys-Tyr(4-Bzl)-Phe] [diaspartate salt of Compound A]						
